Test results published in US7612205B2, “Crystals of quinolinecarboxylic acid derivative solvate” (Nippon Shinyaku Co., Ltd., priority 2003, dated 2009).
Like-named read-outs stand apart in the source and are kept apart here.

Experiments:
[1] = Investigation on solvent for crystallization: whether Compound A is dissolved in a solvent; assay type: physicochemical; details: organic solvent or mixture, thermodynamic from solid, 3 ml solvent to 50 mg
Method: (1) By adding 3 ml of a solvent to 50 mg of Compound A, it was investigated whether Compound A is dissolved or not.
(§1) The results of the (1) described above are shown in the column of *1 of Table 2 and the results of the (2) described above are shown in the column of *2 of Table 2.

[2] = Stability of Compound A in a solvent by high-performance liquid chromatography; assay type: physicochemical; parameters: key to Chemical stability (*2): ◯: the one that did not have a peak other than that of Compound A (there is no degradation product); X: the one that had a peak other than that of Compound A (there is a degradation product); details: 50° C. for 1000 minutes, HPLC; for Chemical stability (*2): 2-fold volume
Method: (2) In order to investigate the stability of Compound A in a solvent, a 2-fold volume (the volume of a solvent (ml)/the weight of a dissolved substance (g)) of a solvent was added to Compound A, the mixture was maintained at 50° C. for 1000 minutes, and then the stability of the compound was investigated by high-performance liquid chromatography.
as §1

[3] = acetonitrile, in terms of the desolvate
Excerpt: In the present invention, the term “supersaturation concentration: Cx (g/100 g)” means the degree of supersaturation state and it is represented by the following formula. Cx=C−Cs
Where, C (g/100 g) indicates the mass (in terms of the desolvate) of Compound B dissolved in 100 g of a solvent.
Cs (g/100 g) indicates the saturation solubility (in terms of the desolvate) of Compound B dissolved in 100 g of a solvent under the temperature at the time of occurrence of spontaneous nucleation or addition of seed crystal.
A predetermined amount of Compound A was dissolved in a predetermined amount of acetonitrile, crystallization was carried out at various supersaturation concentrations, and the obtained crystals were analyzed with a powder X-ray diffractometer.

[4] = in acetonitrile, stirred for 30 minutes
Method: In the present invention, the term “solvent mediated transformation” means transformation of a crystal into another crystal form in the presence of a solvent. For example, it means that at a predetermined temperature, the crystal of Compound B is transformed into the type I crystal of Compound A in a solvent.
The crystal of Compound B was added to acetonitrile in an amount of not less than the supersaturation concentration at a predetermined temperature (in a state where not all the added crystals are dissolved and some crystals are present), stirred for 30 minutes, and then the crystal was filtered and measured with a powder X-ray diffractometer.

In the case of Cc1oc(=O)oc1CN1CCN(c2cc3c(cc2F)c(=O)c(C(=O)O)c2n3C(C)S2)CC1 (stereo not drawn) [Compound A, 6-fluoro-1-methyl-7-[4-(5-methyl-2-oxo-1,3-dioxolen-4-yl)-methyl-1-piperazinyl]-4-oxo-4H-[1,3]thiazeto[3,2-a]quinoline-3-carboxylic acid], the solubility ([1]; solvent 1-butanol) is reported as ≤ 16.7 mg/mL, the solubility ([1]; solvent 2-ethoxy ethanol, read-out: Solubility (*1)) is reported as ≥ 16.7 mg/mL and the solubility ([1]; solvent 2-propanol, read-out: Solubility (*1)) is reported as ≤ 16.7 mg/mL. The solubility ([1]; solvent N,N-dimethylformamide, read-out: Solubility (*1)) was > 16.7 mg/mL, the solubility ([1]; solvent acetic acid, read-out: Solubility (*1)) was > 16.7 mg/mL and the solubility ([1]; solvent acetic anhydride, read-out: Solubility (*1)) was ≥ 16.7 mg/mL. For the same compound, the solubility ([1]; solvent acetone, read-out: Solubility (*1)) was ≤ 16.7 mg/mL, the solubility ([1]; solvent acetonitrile, read-out: Solubility (*1)) was ≥ 16.7 mg/mL and the solubility ([1]; solvent aniline, read-out: Solubility (*1)) was > 16.7 mg/mL. For the same compound, the solubility ([1]; solvent benzene, read-out: Solubility (*1)) was ≤ 16.7 mg/mL, the solubility ([1]; solvent carbon tetrachloride, read-out: Solubility (*1)) was ≤ 16.7 mg/mL and the solubility ([1]; solvent chloroacetonitrile, read-out: Solubility (*1)) was > 16.7 mg/mL. For the same compound, the solubility ([1]; solvent chloroform, read-out: Solubility (*1)) was ≤ 16.7 mg/mL, the solubility ([1]; solvent cresol, read-out: Solubility (*1)) was ≤ 16.7 mg/mL and the solubility ([1]; solvent dibutyl ether, read-out: Solubility (*1)) was ≤ 16.7 mg/mL. For the same compound, the solubility ([1]; solvent diisopropyl ether, read-out: Solubility (*1)) was ≤ 16.7 mg/mL, the solubility ([1]; solvent dioxane, read-out: Solubility (*1)) was ≤ 16.7 mg/mL and the solubility ([1]; solvent diphenyl ether, read-out: Solubility (*1)) was ≤ 16.7 mg/mL. The solubility ([1]; solvent ethanol, read-out: Solubility (*1)) was ≤ 16.7 mg/mL, the solubility ([1]; solvent ethyl acetate, read-out: Solubility (*1)) was ≤ 16.7 mg/mL and the solubility ([1]; solvent formamide, read-out: Solubility (*1)) was ≤ 16.7 mg/mL. For the same compound, the solubility ([1]; solvent formic acid, read-out: Solubility (*1)) was > 16.7 mg/mL, the solubility ([1]; solvent glycerin, read-out: Solubility (*1)) was ≤ 16.7 mg/mL and the solubility ([1]; solvent heptane, read-out: Solubility (*1)) was ≤ 16.7 mg/mL. For the same compound, the solubility ([1]; solvent hexane, read-out: Solubility (*1)) was ≤ 16.7 mg/mL, the solubility ([1]; solvent isobutyl alcohol, read-out: Solubility (*1)) was ≤ 16.7 mg/mL and the solubility ([1]; solvent isopropyl acetate, read-out: Solubility (*1)) was ≤ 16.7 mg/mL. For the same compound, the solubility ([1]; solvent ligroin, read-out: Solubility (*1)) was ≤ 16.7 mg/mL, the solubility ([1]; solvent methanol, read-out: Solubility (*1)) was ≤ 16.7 mg/mL and the solubility ([1]; solvent methyl acetate, read-out: Solubility (*1)) was ≤ 16.7 mg/mL. For the same compound, the solubility ([1]; solvent methyl ethyl ketone, read-out: Solubility (*1)) was ≤ 16.7 mg/mL, the solubility ([1]; solvent methylcyclohexane, read-out: Solubility (*1)) was ≤ 16.7 mg/mL and the solubility ([1]; solvent nitromethane, read-out: Solubility (*1)) was > 16.7 mg/mL. The solubility ([1]; solvent p-cymene, read-out: Solubility (*1)) was ≤ 16.7 mg/mL, the solubility ([1]; solvent petroleum ether, read-out: Solubility (*1)) was ≤ 16.7 mg/mL and the solubility ([1]; solvent phenol, read-out: Solubility (*1)) was ≥ 16.7 mg/mL. For the same compound, the solubility ([1]; solvent pyridine, read-out: Solubility (*1)) was > 16.7 mg/mL, the solubility ([1]; solvent tetrachloroethylene, read-out: Solubility (*1)) was ≤ 16.7 mg/mL and the solubility ([1]; solvent tetrahydrofuran, read-out: Solubility (*1)) was ≤ 16.7 mg/mL. For the same compound, the solubility ([1]; solvent toluene, read-out: Solubility (*1)) was ≤ 16.7 mg/mL, the solubility ([1]; solvent trichloroethylene, read-out: Solubility (*1)) was ≤ 16.7 mg/mL and the solubility ([1]; solvent xylene, read-out: Solubility (*1)) was ≤ 16.7 mg/mL. The “degradation product in solvent” value ([2]; formic acid, acetic acid and aniline) was “a degradation product of Compound A was observed”, the “Chemical stability (*2)” value ([2]; solvent 2-ethoxy ethanol) was “X” and the “Chemical stability (*2)” value ([2]; solvent acetic acid) was “X”. The “Chemical stability (*2)” value ([2]; solvent acetic anhydride) was “X”, the “Chemical stability (*2)” value ([2]; solvent acetonitrile) was “◯” and the “Chemical stability (*2)” value ([2]; solvent aniline) was “X”. For the same compound, the “Chemical stability (*2)” value ([2]; solvent formic acid) was “X”, the “Chemical stability (*2)” value ([2]; solvent methanol) was “X” and the “Chemical stability (*2)” value ([2]; solvent phenol) was “X”.

For CC#N.Cc1oc(=O)oc1CN1CCN(c2cc3c(cc2F)c(=O)c(C(=O)O)c2n3C(C)S2)CC1 (stereo not drawn) [Compound B, 6-fluoro-1-methyl-7-[4-(5-methyl-2-oxo-1,3-dioxolen-4-yl)-methyl-1-piperazinyl]-4-oxo-4H-[1,3]thiazeto[3,2-a]quinoline-3-carboxylic acid acetonitrile solvate], the “Solubility at the time of occurrence of spontaneous nucleation or addition of seed crystals (Cs)” value (shortened to “Solubility at the time”) ([3]; 0 ° C.) was 0.07 g/100 g, the “Solubility at the time” value ([3]; 14.3 ° C.) was 0.16 g/100 g and the “Solubility at the time” value ([3]; 17 ° C.) was 0.19 g/100 g. For the same compound, the “Solubility at the time” value ([3]; 25 ° C.) was 0.29 g/100 g, the “Solubility at the time” value ([3]; 27 ° C.) was 0.32 g/100 g and the “Solubility at the time” value ([3]; 30 ° C.) was 0.38 g/100 g. The “Solubility at the time” value ([3]; 45 ° C.) was 0.79 g/100 g, the “Solubility at the time” value ([3]; 50 ° C.) was 1.00 g/100 g and the “Solubility at the time” value ([3]; 55 ° C.) was 1.25 g/100 g. For the same compound, the “Solubility at the time” value ([3]; 65 ° C.) was 1.92 g/100 g, the “Solubility at the time” value ([3]; 70 ° C.) was 2.36 g/100 g and the Crystal form ([4]; 25 ° C.) was “Not changed”. The Crystal form ([4]; 40 ° C.) was “Not changed”, the Crystal form ([4]; 55 ° C.) was “Not changed” and the Crystal form ([4]; 67 ° C.) was “Not changed”.
